Test results as given in patent US20240325548A1, “DYNAMIC BIOACTIVE SCAFFOLDS AND THERAPEUTIC USES THEREOF AFTER CNS INJURY” (Northwestern University, priority 2021, published 2024).

How the values were obtained:
hNPCs = assay: hNPC attachment, proliferation and phenotype on co-assembled PA coatings (EdU, SOX-2, PAX6); assay type: cell-based, human
Text: Neural progenitor cells (NPCs) were differentiated from human embryonic stem cells HUES 64 (Harvard University) (see FIG. 2C). In short, 70% confluent stem cell cultures grown in Matrigel (Thermo Fisher) coated plates with mTESR medium (STEMCELL Technologies), were switched to N2B27 medium (50% DMEM: F12, 50% Neurobasal, supplemented with NEAA, Glutamax, N2 and B27; Gibco) containing dual SMAD inhibitors (SB431542, DNSK International and LDN-193189, Tocris) for 12 days to induce the generation of neural progenitors. Neuralization was enhanced by supplementing medium with laminin from day 5 to 12. Next, neural rosettes were dissociated with neural rosette selection reagent (STEMCELL Technologies) to obtain NPCs, which are expanded in N2B27 (Gibco) medium supplemented with bFGF (Millipore). For experimentation in the different PA platforms, NPCs were dissociated with Accutase (Innovative Cell technology), and cultured in the distinct platforms with DMEM: F12+N2+B27 medium with hyclone penicillin-streptomycin (GE Healthcare) and ascorbic acid (0.2 μg/mL; Sigma-Aldrich).
For IKVAV PA treatments, hNPCs were cultured on ornithine coatings (German Glass, Chemglass Life Science) in 6 well and 24 well plates at a density of 500,000 cells/well and 80,000 cells/well respectively. hNPCs were treated with […] of IKVAV PAs ([PA]=6 mM, [KCl]=3 mM, [NaCl]=150 mM) or recombinant laminin protein (10 mg/mL) in solution. IKVAV PA2 and IKVAV PA5 were also mixed with 5 mM CaCl2) at a ratio PA:CaCl2) 6:1 to treat hNPCs. For 2D experiments, hNPCs were cultured on the different IKVAV PAs or laminin coatings in 6 well and 24 well plates at densities mentioned above. For co-assembled experiments, hNPCs were cultured on the different co-assembled PA coatings in 6 well and 24 well plates at a density of 400,000 cells/well and 50,000 cells/well respectively.
hNPCs were fed 4 times a week with DMEM: F12+N2^+B27 medium with hyclone penicillin-streptomycin and ascorbic acid. After 24 h, 72 h 1- or 2-weeks in vitro, cell lysates were harvested or fixed for WB or ICC, respectively. Three replicates per condition and at least three independent experiments were carried out for all conditions investigated.
For the hNPCs proliferation assay, 2 μM of the thymidine analog 5-ethynyl-2′-deoxyuridine (EdU, Thermo Fisher) was incorporated into the culture medium for 24 h. Cells were fixed at the indicated time points in 4% paraformaldehyde (PFA) for 15 min at RT. After fixation, samples were washed in PBS twice and then stained with Click-iT™ EdU Cell Proliferation Kit containing 11 mM CuSO4 (from 50 mM stock) and 1 μg/mL of Alexa Fluor-555 azide (from 0.5 mg/mL, Thermo Fisher) for 30 minutes at RT in the dark. The staining cocktail was then removed, and cells were washed with PBS. Then, hNPCs were counterstained with anti-rabbit SOX-2 antibody following the immunofluorescence protocol described below and 4′, 6-diamidino-2-phenylindole (DAPI, Thermo Fisher) at 5 μg/mL in PBS for 20 min at RT. The cells were then washed with PBS and mounted with Immu-Mount (Fisher Scientific) for imaging.
For immunofluorescence, fixed primary cultures or free-floating tissue sections (40 m Thick) were incubated in blocking buffer containing 0.02% Triton-X (Sigma-Aldrich), 1% NHS (Gibco) and PBS 1× (Gibco). Samples were incubated with primary antibodies over night at 4° C. Alexa-488, Alexa-555 and/or Alexa-647 (1:500, Thermofisher) were used as secondary antibodies. DAPI (1:500, Thermofisher) was used to stain nuclei. […]

[1] = Diffusion ordered spectroscopy (DOSY), pulse-field gradient NMR; assay type: physicochemical
Experimental: The diffusion coefficients were measured by pulse-field gradient NMR using the longitudinal eddy-current delay with bipolar pulse pairs pulse sequence with a maximum gradient strength of 53.5 G/cm and 16 values for the gradient strength. The peak intensity I was measured and fit to the Stejskal-Tanner equation: […]
where I0 is the intensity in the absence of the gradient pulse, D is the diffusion coefficient, γ is the proton gyromagnetic ratio, g is the gradient strength, δ is the length of the pulse field gradient pulse (2 ms) and Δ is the diffusion delay (0.1 s).
The […] was calculated from the Stokes-Einstein equation as: […]
where kB is the Boltzmann constant, T is the temperature, and f is the viscosity.
PA materials were mixed (90 mol % of IKVAV PA2+10 mol % FGF2 PAs) and sonicated as described above and then lyophilized. Samples were then dissolved in D2O water and solubilized in 1 equiv. NaOD at a concentration of 6 mM in standard 5 mm NMR tube with 0.25 mM sodium trimethylsilylpropanesulfonate (DSS) as a chemical shift reference and an intensity standard. […] Diffusion coefficients were measured using pulse-field gradient NMR using the stimulated echo pules sequence with a 2 ms gradient pulse and a 100 ms diffusion delay time using a maximum gradient strength of 53 G/cm.

[2] = Negative-stain TEM fiber width; assay type: physicochemical
Experimental: To prepare the negatively stained TEM specimen, 7 μL of PA sample solution (1 wt % PA prepared in 150 mM NaCl and 3 mM diluted 10 times in MilliQ water) was applied on the shiny side of a glow discharged grid (300 mesh copper with carbon film, Electron Microscopy Sciences), followed by rinsing three times with MilliQ water to remove the excess of salt. The grid was then stained with filtered 2 wt % uranyl acetate aqueous solution and dried in air. TEM imaging was carried out on a JEOL 1230 microscope with a LaB6 filament at 100 kV accelerating voltage, equipped with a Gatan 831 CCD camera. A cold finger was introduced for sample stabilization during imaging.

C16-A2G2E4GIKVAV [IKVAV PA2]
percentage of proliferating EdU+ and SOX2+ cells (hNPCs): decreased significantly
percentage of neuronal progenitor cells PAX6+ (hNPCs; one week later): increased percentage
Rh ([1]; calculated from Stokes-Einstein equation): 1.4 nm
D ([1]; diffusion coefficient, DOSY): 1.6 ± 0.01 × 10^−10 m^2/s
average fiber width [2]: 10.6±0.1 nm
